Five compounds from US10822348B2, “Inhibitors of Bruton's tyrosine kinase and methods of their use” (JANSSEN PHARMACEUTICA NV, priority 2015, dated 2020) can be followed below.

This experiment has as its target unphosphorylated-BTK kinase domain (UP-BTK), GST-tagged human BTK (389-659aa) (Homo sapiens (Human), UniProt Q06187). Put plainly: BTK kinase Lanthascreen binding assay. The method, then: BTK Kinase Lanthascreen Binding Assay:
A BTK kinase lanthascreen binding assay monitors compound binding to unphosphorylated-BTK kinase domain (UP-BTK), by competing with a fluorescent labeled tracer. […] Data were analyzed using Xlfit™ version 5.3 from ID Business Solutions (Guildford), Microsoft Excel add-in. pIC50 refers to the negative log of the IC50 in molar.
A general note: In TR-FRET formats the signal depends on donor and acceptor labels being close together.

[1] abbreviates: unphosphorylated-BTK kinase domain, 60 minutes incubation, pIC50 = negative log of the IC50 in molar.
[2] abbreviates: negative log of the IC50 in molar, 60 minutes incubation, 50 nM Tracer 236.

unphosphorylated-BTK kinase domain (UP-BTK), GST-tagged human BTK (389-659aa), sequence (Q06187 389-659): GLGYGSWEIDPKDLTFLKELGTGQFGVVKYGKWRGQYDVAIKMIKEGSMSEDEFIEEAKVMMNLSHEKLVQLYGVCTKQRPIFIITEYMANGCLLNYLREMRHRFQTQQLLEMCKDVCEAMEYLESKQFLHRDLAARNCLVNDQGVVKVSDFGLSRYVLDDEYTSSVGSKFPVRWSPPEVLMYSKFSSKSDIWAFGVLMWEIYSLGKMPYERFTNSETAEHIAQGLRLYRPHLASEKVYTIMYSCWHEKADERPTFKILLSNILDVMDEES

`C=CC(=O)N1CCC[C@@H](NC(=O)c2sc3nccc4c3c2NC(=O)N4c2ccc(OC(C)C)cc2C)C1` (single isomer, unassigned) [Example 418, (R)—N-(1-Acryloylpiperidin-3-yl)-5-(*R)-(4-isopropoxy-2-methylphenyl)-4-oxo-4,5-dihydro-3H-1-thia-3,5,8-triazaacenaphthylene-2-carboxamide]: the “BTK_I_binding pIC50” value under setting [1] is reported as 7.8. Turning to `C=CC(=O)N1CCC[C@@H](NC(=O)c2sc3nccc4c3c2NC(=O)N4c2ccc(CC(C)C)nc2C)C1` (single isomer, unassigned) [Example 792, (R)—N-(1-Acryloylpiperidin-3-yl)-5-(*S)-(6-isobutyl-2-methylpyridin-3-yl)-4-oxo-4,5-dihydro-3H-1-thia-3,5,8-triazaacenaphthylene-2-carboxamide], the “BTK_I_binding pIC50” value (negative log of the IC50 in molar, 60 minutes incubation with 50 nM Tracer 236) is reported as 6.4. Take `C=CC(=O)N1CC[C@@H](NC(=O)c2sc3nccc4c3c2NC(=O)N4c2ccc(Oc3ccccc3)cc2C)C1` (single isomer, unassigned) [Example 169, (R)—N-(1-Acryloylpyrrolidin-3-yl)-5-(*R)-(2-methyl-4-phenoxyphenyl)-4-oxo-4,5-dihydro-3H-1-thia-3,5,8-triazaacenaphthylene-2-carboxamide]: the “BTK_I_binding pIC50” value under setting [2] worked out at 6.4. Consider `C=CC(=O)N1CC[C@H](NC(=O)c2sc3nccc4c3c2NC(=O)N4c2ccc(Oc3ccccc3)cc2C)C1` (single isomer, unassigned) [Example 518, (S)—N-(1-Acryloylpyrrolidin-3-yl)-5-(*S)-(2-methyl-4-phenoxyphenyl)-4-oxo-4,5-dihydro-3H-1-thia-3,5,8-triazaacenaphthylene-2-carboxamide], for which the “BTK_I_binding pIC50” value under setting [1] was found to be 7.6. `N#C/C(=C\C1CC1)C(=O)N1CCC[C@@H](NC(=O)c2sc3nccc4c3c2NC(=O)N4c2c(Cl)ccc3c2OCO3)C1` (single isomer, unassigned) [Example 239]: the “BTK_I_binding pIC50” value under setting [2] is recorded as 7.4.
